Results published in US8354398B2, “Substituted isoxazole compounds” (Bristol-Myers Squibb Company, priority 2009, dated 2013).
Structures can show the parent of a compound that is named as a salt.

Columns and labels:
S1P1 [1] = target: T1, S1P1 (Homo sapiens, UniProt P21453); assay: Method A: Receptor [35S] GTPγS Binding Assay, membranes from S1P1/CHO cells; type: biochemical; design: expressed in transfected cells; host or cells: S1P1/CHO cells; conditions: for EC50: Method A, S1P1/CHO cell membranes; for GTPγS S1P3/S1P1 (Method A): ratio of GTPγS S1P3 EC50 to GTPγS S1P1 EC50, Method A
T1 sequence (P21453 whole entry): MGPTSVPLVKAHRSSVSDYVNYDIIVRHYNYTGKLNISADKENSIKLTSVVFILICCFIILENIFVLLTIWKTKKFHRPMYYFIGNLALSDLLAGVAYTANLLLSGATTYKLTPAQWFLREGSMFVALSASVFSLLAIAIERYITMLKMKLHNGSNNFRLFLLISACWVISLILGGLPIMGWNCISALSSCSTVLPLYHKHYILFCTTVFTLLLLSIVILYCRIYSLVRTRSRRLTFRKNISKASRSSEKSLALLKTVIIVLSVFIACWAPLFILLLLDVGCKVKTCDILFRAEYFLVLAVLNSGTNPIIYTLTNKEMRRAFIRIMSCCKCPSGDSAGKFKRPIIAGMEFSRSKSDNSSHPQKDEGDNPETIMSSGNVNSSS
Method: (§1) Compounds were loaded in a 384 Falcon v-bottom plate (0.5 μl/well in a 3-fold dilution). Membranes prepared from S1P1/CHO cells or EDG3-Ga15-bla HEK293T cells were added to the compound plate (40 μl/well, final protein […]) with MULTIDROP®. [^35S]GTP (1250 Ci/mmol, Perkin Elmer) was diluted in assay buffer: 20 mM HEPES, pH7.5, 10 mM MgCl2, 150 mM NaCl, 1 mM EGTA, 1 mM DTT, 10 μM GDP, 0.1% fatty acid free BSA, and 10 mg/ml Saponin to 0.4 nM. 40 μl of the [^35S] GTP solution was added to the compound plate with a final concentration of 0.2 nM. The reaction was kept at room temperature for 45 min. At the end of incubation, all the mixtures in the compound plate were transferred to a 384 well FB filter plates via GPCR robot system. The filter plate was washed with water 4 times by using the modified manifold Embla plate washer and dried at 60° C. for 45 min. 30 μl of MicroScint 20 scintillation fluid was added to each well for counting at Packard TOPCOUNT®. EC50 is defined as the agonist concentration that corresponds to 50% of the Ymax (maximal response) obtained for each individual compound tested.
(§2) Compounds of the present invention and Comparative Compound A were tested in the Receptor [^35S] GTPγS Binding Assays (Method A) and Receptor [35S] In some instances, the value is an average of multiple experiments where N is the number of experiments conducted that provided satisfactory dose response curves. When more than one batch of an example was tested, the value presented is from a batch which allowed a comparison of GTPγS S1P1 and GTPγS S1P3 in which the most number of experiments were performed. Preferably, the same batch was examined in Method A and Method B. Data was not averaged across different batches of an example compound.

S1P3 = S1P3 (Homo sapiens, UniProt Q99500); assay: Method A: Receptor [35S] GTPγS Binding Assay, membranes from EDG3-Ga15-bla HEK293T cells; type: biochemical; design: expressed in transfected cells; host or cells: EDG3-Ga15-bla HEK293T cells; conditions: EDG3-Ga15-bla HEK293T cell membranes
S1P3, sequence (Q99500 whole entry): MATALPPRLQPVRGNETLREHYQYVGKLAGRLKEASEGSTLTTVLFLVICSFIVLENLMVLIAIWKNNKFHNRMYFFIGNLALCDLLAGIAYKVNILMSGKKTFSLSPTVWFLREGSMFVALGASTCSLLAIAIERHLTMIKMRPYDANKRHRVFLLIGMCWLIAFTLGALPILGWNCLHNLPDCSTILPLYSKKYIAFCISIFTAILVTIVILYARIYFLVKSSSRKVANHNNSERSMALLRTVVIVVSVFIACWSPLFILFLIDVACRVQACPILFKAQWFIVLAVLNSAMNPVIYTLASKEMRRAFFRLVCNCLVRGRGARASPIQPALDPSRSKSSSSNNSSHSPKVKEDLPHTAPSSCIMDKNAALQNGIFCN
Method: as §1, §2

S1P1 [2] = target: T1, S1P1; assay: S1P1 Binding Assay (33P-S1P ligand competition, membranes from CHO cells); design: expressed in transfected cells; host or cells: CHO cells; conditions: membranes of CHO cells expressing human S1P1; 0.03 nM 33P-S1P; 60 min room temperature
Method: Membranes were prepared from CHO cells expressing human S1P1. Cells were dissociated in buffer containing 20 mM HEPES, pH 7.5, 50 mM NaCl, 2 mM EDTA and Protease Inhibitor cocktail (Roche), and disrupted on ice using the Polytron homogenizer. The homogenate was centrifuged at 20,000 rpm (48,000 g) and the supernatant was discarded. The membrane pellets were resuspended in buffer containing 50 mM HEPES, pH 7.5, 100 mM NaCl, 1 mM MgCl2, 2 mM EDTA and stored in aliquots at −80° C. after protein concentration determination.
Membranes (2 μg/well) and 0.03 nM final concentration of ^33P-S1P ligand (1 mCi/ml, American Radiolabeled Chemicals) were added to the compound plates. Binding was performed for 60 min at room temperature, terminated by collecting the membranes onto GF/B filter plates, and radioactivity was measured by TOPCOUNT®. The competition data of the test compounds over a range of concentrations was plotted as percentage inhibition of radioligand specific binding. The IC50 is defined as the concentration of competing ligand needed to reduce specific binding by 50%.
Compounds of the present invention and Comparative Compound A were tested in the S1P1 binding assay described hereinabove and the results rounded to two digits, shown in Table A were obtained. In some instances, the value is an average of multiple experiments where N is the number of experiments conducted that provided satisfactory dose response curves. When more than one batch of an example was tested, the value presented is from the batch which allowed a comparison of GTPγS S1P1 and GTPγS S1P3 in Method A (Data shown in Table B). Data was not averaged across different batches of an example compound.

S1P1 [3] = target: T1, S1P1; assay: Method B: Receptor [35S] GTPγS SPA Binding Assay, membranes from S1P1 transfected CHO cells; type: biochemical; design: expressed in transfected cells; host or cells: S1P1/CHO cells; conditions: Method B SPA; S1P1 transfected CHO cell membranes; NC = a satisfactory dose response curve was not obtained
Method: Membranes prepared from S1P1 or S1P3 transfected CHO cells (2 μg protein) were incubated in 96-well white plates (CORNING® 3693) with test compounds diluted in DMSO, in 50 μl of reaction mixture containing 7.5 μl WGA-PVT beads (20 mg/ml), and 5 μM GDP, 20 mM HEPES pH 7.4, 100 mM NaCl, 1 mM EDTA, 5 mM MgCl2, 10 μg/ml saponin, 0.1% BSA, and 1 μM leupeptin. The assay was initiated with the addition of 25 μl of 0.2 nM [^35S]-GTPγS (1250 Ci/mmol; NEN) in assay buffer. After 90 min incubation at room temperature, spin the plate at 1000 rpm for 5 min. The bound radionuclides were measured at TOPCOUNT®, expressed as % response relative to S1P (1 μM) activation. Data was analyzed using the four parameter logistic equation in Excel. The four parameters in the equation, Y=A+((B−A)/(1+((EC50/X)^D))), are described as following: A is the Y value (agonist activity) at the bottom plateau; B is the Y value at the top plateau; EC50 is the X value (agonist concentration) when the response is halfway between bottom and top; D is Hill coefficient. Curves were not generated for compounds having Ymax values were below 50%.
as §2

Row | SMILES | EC50 (S1P1 [1]) [nM] | GTPγS S1P3/S1P1 (Method A) (S1P1 [1]) | EC50 (S1P3) [nM] | IC50 (S1P1 [2]) [nM] | EC50 (S1P1 [3]) [nM]
1 | O=C(O)c1c(-c2ccccc2)noc1-c1nc(-c2ccc(CN3CC(C(=O)O)C3)cc2)no1 [Example 16, 5-(3-(4-((3-Carboxyazetidin-1-yl)methyl)phenyl)-1,2,4-oxadiazol-5-yl)-3-phenylisoxazole-4-carboxylic acid] | 112 | 18 | 2050 | 40 | 
2 | CNC(=O)c1c(-c2ccccc2)noc1-c1nc(-c2ccc(CN3CC(C(=O)O)C3)cc2)no1 [Example 14, 1-(4-(5-(4-(Methylcarbamoyl)-3-phenylisoxazol-5-yl)-1,2,4-oxadiazol-3-yl)benzyl)azetidine-3-carboxylic acid, 2,2,2-trifluoroacetic acid salt] | 150 | 35 | 5200 | 0.7 | 1.2
3 | COC(=O)c1c(-c2ccccc2)noc1-c1nc(-c2ccc(CN3CC(C(=O)O)C3)cc2)no1 [Example 13, 1-(4-(5-(4-(Methoxycarbonyl)-3-phenylisoxazol-5-yl)-1,2,4-oxadiazol-3-yl)benzyl)azetidine-3-carboxylic acid, 2,2,2-trifluoroacetic acid salt] | 1.9 | 578 | 1100 | 0.094 | 
4 | O=C(O)C1CN(Cc2ccc(-c3noc(-c4noc(-c5ccccc5)c4CCC(F)(F)F)n3)cc2)C1 [Example 8, 1-(4-(5-(5-Phenyl-4-(3,3,3-trifluoropropyl)isoxazol-3-yl)-1,2,4-oxadiazol-3-yl)benzyl)azetidine-3-carboxylic acid, 2,2,2-trifluoroacetic acid salt] | 3.7 | 140 | 520 | 0.09 | 
5 | O=C(NCC(F)(F)F)c1c(-c2ccccc2)noc1-c1nc(-c2ccc(CN3CC(C(=O)O)C3)cc2)no1 [Example 15, 1-(4-(5-(3-Phenyl-4-(2,2,2-trifluoroethylcarbamoyl)isoxazol-5-yl)-1,2,4-oxadiazol-3-yl)benzyl)azetidine-3-carboxylic acid, 2,2,2-trifluoroacetic acid salt] | 29 | 175 | 5100 | 6.5 | 
6 | CC(C)Cc1c(-c2nc(-c3ccc(CN4CC(C(=O)O)C4)cc3)no2)noc1-c1ccccc1 [Example 4, 1-(4-(5-(4-Isobutyl-5-phenylisoxazol-3-yl)-1,2,4-oxadiazol-3-yl)benzyl)-azetidine-3-carboxylic acid] | 0.7 | 670 | 470 | 0.17 | 0.58
7 | CCc1c(-c2nc(-c3ccc(CN4CC(C(=O)O)C4)c(Br)c3)no2)noc1-c1ccccc1 [Example 5, 1-(2-Bromo-4-(5-(4-ethyl-5-phenylisoxazol-3-yl)-1,2,4-oxadiazol-3-yl)benzyl)azetidine-3-carboxylic acid] | 5.3 | 320 | 1700 | 0.14 | 
8 | CCCCc1c(-c2nc(-c3ccc(CN4CC(C(=O)O)C4)cc3)no2)noc1-c1ccccc1 [Example 3, 1-(4-(5-(4-Butyl-5-phenylisoxazol-3-yl)-1,2,4-oxadiazol-3-yl)benzyl)-azetidine-3-carboxylic acid] | 0.26 | 1,300 | 330 | 0.065 | 0.16

More lines, now with the values ahead:

Row | EC50 (S1P1 [1]) [nM] | GTPγS S1P3/S1P1 (Method A) (S1P1 [1]) | EC50 (S1P3) [nM] | IC50 (S1P1 [2]) [nM] | EC50 (S1P1 [3]) [nM] | SMILES
9 | 0.56 | 3,900 | 2200 | 0.15 |  | CC(C)Cc1onc(-c2nc(-c3ccc(CN4CC(C(=O)O)C4)cc3)no2)c1C(F)(F)F [Example 20, 1-(4-(5-(5-Isobutyl-4-(trifluoromethyl)isoxazol-3-yl)-1,2,4-oxadiazol-3-yl)benzyl)-azetidine-3-carboxylic acid]
10 | 3 | 270 | 810 | 0.3 | 0.72 | CCCc1onc(-c2nc(-c3ccc(CN4CC(C(=O)O)C4)cc3)no2)c1CC(C)C [Example 19, 1-(4-(5-(4-Isobutyl-5-propylisoxazol-3-yl)-1,2,4-oxadiazol-3-yl)benzyl)azetidine-3-carboxylic acid, TFA]
11 | 6.4 | 4,900 | 31000 | 1.56 |  | O=C(O)C1CN(Cc2ccc(-c3noc(-c4onc(-c5ccccc5)c4C(F)(F)F)n3)c(C(F)(F)F)c2)C1 [Example 24, 1-(4-(5-(3-phenyl-4-(trifluoromethyl)isoxazol-5-yl)-1,2,4-oxadiazol-3-yl)-3-(trifluoromethyl)benzyl)azetidine-3-carboxylic acid]
12 | 0.32 | 3,500 | 1100 | 0.32 |  | O=C(O)C1CN(Cc2ccc(-c3noc(-c4onc(-c5ccccc5)c4C(F)(F)F)n3)cc2F)C1 [Example 21, 1-(2-Fluoro-4-(5-(3-phenyl-4-(trifluoromethyl)isoxazol-5-yl)-1,2,4-oxadiazol-3-yl)benzyl)azetidine-3-carboxylic acid]
13 | 1.9 | 4,400 | 8300 | 0.26 |  | O=C(O)C1CN(Cc2ccc(-c3noc(-c4onc(-c5ccccc5)c4C(F)(F)F)n3)c(Cl)c2)C1 [Example 23, 1-(3-chloro-4-(5-(3-phenyl-4-(trifluoromethyl)isoxazol-5-yl)-1,2,4-oxadiazol-3-yl)benzyl)azetidine-3-carboxylic acid]
14 | 0.52 | 3,000 | 1600 | 0.55 |  | Cc1cc(-c2noc(-c3onc(-c4ccccc4)c3C(F)(F)F)n2)ccc1CN1CC(C(=O)O)C1 [Example 22, 1-(2-methyl-4-(5-(3-phenyl-4-(trifluoromethyl)isoxazol-5-yl)-1,2,4-oxadiazol-3-yl)benzyl)azetidine-3-carboxylic acid]
15 | 9.2 | 371 | 3400 | 0.44 |  | O=C(O)C1CN(Cc2ccc(-c3noc(-c4noc(-c5ccccc5)c4-c4ccccc4)n3)c(C(F)(F)F)c2)C1 [Example 25, 1-(4-(5-(4,5-Diphenylisoxazol-3-yl)-1,2,4-oxadiazol-3-yl)-3-(trifluoromethyl)benzyl)azetidine-3-carboxylic acid, 2,2,2-trifluoroacetic acid salt]
